Measured values published in patent publication US20210196738A1, “PHARMACEUTICAL COMPOSITION COMPRISING A COLLOIDAL DISPERSION AND A THERAPEUTIC AGENT AND METHODS AND USES THEREOF” (priority 2017, published 2021).
Entries after “also recorded” stand apart in the source; their conditions may differ. Read-outs that look alike come from different tables or passages of the source.

Tests used:
[1] = tested on: Salmonella enterica Typhimurium LT2; assay: Highly sensitive competition experiments (resistant vs wild type); assay type: cell-based; details: 50% sensitive / 50% Streptomycin-resistant bacteria; silver at 0.25×MIC; FIG. 1
Description: (§1) The Minimum Inhibitory Concentration (MIC) of nanosilver (silver) was determined by two-fold dilution series in NaCl free Nutrient Broth (Sigma-Aldrich) in 15 ml screw cap tubes. The tubes were incubated in the dark over night at 37° C. without shaking. The MIC was determined as the lowest concentration of nanosilver (silver) at which no visible growth was observed.

[2] = tested on: S. enterica Typhimurium LT2; assay: AgSol-antibiotic synergy screening assay; assay type: cell-based, Salmonella enterica; details: Streptomycin or Rifampicin; FIGS. 2A-2F
Description: (§2) Antibiotic stock solutions were serially diluted in 2-fold steps in pre-warmed (37° C.) nutrient broth (NB) to prepare an antibiotic concentration gradient above and below the minimal inhibitory concentration (MIC) of antibiotic (Table 4). 50 μl of prepared dilutions were aliquoted into a 96-well round bottom plate (Nunc, Thermo Fisher) for the screening assay.
(§3) Silver formulation (AgSol1000 (particles with 19 Ag per silica particle), AgSol300 (particles with 6 Ag per silica particle, AgNO3), aluminum coated silica beads (159/500 (silica particles with aluminium silicate coating)) and uncoated silica beads (15/500) were diluted in pre-warmed (37° C.) NB. Bindzil®15/500 is an unmodified silica sol, whereas Bindzil®159/500 is a aluminosilicate modified silica sol. Bindzil® is sold by Akzo Nobel AB.
(§4) 40 μl of the prepared dilutions were added to the 96-well plate containing antibiotic gradient to reach the final silver concentration of ¼×MICAgSol (silver) (specific for the microorganism used) (Table 5).
(§5) The prepared plate was incubated in 37° C. incubator without shaking in the dark for 16-20 h and the optical density (OD620) of each well was measured in plate reader Multiscan FC (Thermo Fisher).

[3] = tested on: E. coli K-12 MG1655 (DA4201); assay: AgSol-antibiotic synergy screening assay / MIC (Ag/Antibiotic screen); assay type: cell-based, Escherichia coli; details: for Antibiotic MIC, NB + AgSol1000: antibiotic in combination with AgSol1000 at ¼ × MIC silver; for Fold change (antibiotic MIC, NB vs NB + AgSol1000): dash = MIC unchanged; for fold increase in effect with AgSol vs antibiotic alone: Table 6, E. coli
Description: (§6) The MIC (Minimal Inhibitory Concentration) of a bacterium to a certain antimicrobial agent gives a quantitative estimate of the susceptibility. MIC is defined as the lowest concentration of antimicrobial agent required to inhibit growth of the organism. The principle is simple: Agar plates, tubes or microtitre trays with two-fold dilutions of antibiotics are inoculated with a standardized inoculum of the bacteria and incubated under standardized conditions following NCCLS guidelines. The next day, the MIC is recorded as the lowest concentration of antimicrobial agent with no visible growth. The MIC informs you about the degree of resistance and might give you important information about the resistance mechanism and the resistance genes involved. MIC-determination performed as agar dilution is regarded as the gold standard for susceptibility testing (Source: Global Salm-Surv—A global Salmonella surveillance and laboratory support project of the World Health Organization (4th Ed. April 2002, modified November 2010))
as §1, §2, §3, §4
(§7) Overnight (16-20 h) cultures of 3 biological replicates of the following microorganisms E. coli K-12 MG1655 (DA4201), E. coli K-12 MG1655 rpsL K42N (DA49828), Pseudomonas aeruginosa PAO1 (DA6215) or Staphylococcus aureus USA300 JE2 (DA28823) were grown in NB till saturation (37° C. incubator with 190 rpm shaking). Cultures were diluted in NB to 10^7 CFU/ml and 10 μl of the dilution were added to the 96-well plate containing antibiotic gradient and silver formulations or the bead controls to reach the final concentration of 10^5 CFU/well in 100 μl total volume per well. 3 technical replicates (3 wells) of specific antibiotic concentration in combination with silver and microorganism were used. A control plate containing bacterial cells mixed with only antibiotic gradient was always included too.
as §5

[4] = tested on: Staphylococcus aureus USA300 JE2 (DA28823); assay: AgSol-antibiotic synergy screening assay / MIC; assay type: cell-based; details: for effect of antibiotic when adding AgSol: S. aureus (USA300 JE2), FIGS. 4 and 5; for MIC: Staphylococcus aureus, USA300, antibiotic alone, S. aureus (DA28823), values used for antibiotic gradient
Description: as §6, §1, §2, §3, §4, §7, §5

[5] = tested on: Staphylococcus aureus USA300 JE2 (DA28823); assay: Time-kill assay; assay type: cell-based; details: antibiotic 2×MIC, silver ¼×MIC; FIG. 7A-B
Description: (§8) Antibiotic stock solutions were diluted in pre-warmed (37° C.) nutrient broth (NB) to prepare 2×MIC concentration (Table 4) of antibiotic in the final volume of 2 ml in 15 ml tubes (Sarstedt).
(§9) Silver formulation (AgSol1000, AgNO3) was diluted in pre-warmed (37° C.) NB and added to the tube containing antibiotic to reach the final silver concentration of ¼×MICAgsol (silver) (Table 5) in the final volume of 2 ml.
(§10) Overnight (16-20 h) cultures of 2 biological replicates of the following microorganisms Pseudomonas aeruginosa PAO1 (DA6215) or Staphylococcus aureus USA300 JE2 (DA28823) were grown in NB till saturation (37° C. incubator with 190 rpm shaking). Cultures were diluted (1/100) in pre-warmed (37° C.) NB and incubated in 37° C. incubator with 190 rpm shaking until they reached exponential growth phase (OD600˜0.2). Final concentration of approximately 10^6 CFU/ml of exponentially dividing cells was used in the total volume of 2 ml mixture of antibiotic and silver formulation. Control tubes with only bacterial cells or bacterial cells mixed with only antibiotic or only silver formulation were also used.
(§11) All tubes were incubated in 37° C. water bath with 150 rpm shaking and 100 μl samples were taken out at pre-determined time points for viable counts (2 technical replicates). CFU counts were normalized to the 0 h sample and were plotted as a function of time (h).
(§12) A “Time Kill” test was performed with S. aureus USA3000 JE2 and Fusidic acid (FUS) and Mupirocin (MUP) and with P. aeruginosa (PAO1) with gentamicin (GEN). From a stock solution with bacteria with controlled growth at 37° C. during 16 h, […] were prepared: • Bacterial cells • Bacterial cells+AgSol • Bacterial cells+AgNO3; • Bacterial cells+AgSol+antibiotic • Bacterial cells+AgNO3+antibiotic
(§13) Samples were taken after 0, 4, 8, 24 and 48 hours at 37° C. (incubation with shaking). The samples were plated for viable counts, CFU counts normalized to 0 h and plotted as a function of time.

[6] = tested on: Pseudomonas aeruginosa PAO1 (DA6215); assay: AgSol-antibiotic synergy screening assay / MIC; assay type: cell-based
Description: as §6, §1, §2, §3, §4, §7, §5

[7] = tested on: gentamicin-resistant P. aeruginosa (DA60255); assay: AgSol-antibiotic synergy screening assay / MIC, gentamicin-resistant strain; assay type: cell-based, Pseudomonas aeruginosa; details: AgSol1000 at 0.25×MIC; FIG. 9
[8] = tested on: Pseudomonas aeruginosa PAO1 (DA6215); assay: Time-kill assay; assay type: cell-based; details: for time-kill: effect of gentamicin in combination with AgSol: 0-48 h, FIGS. 8A, 8B
Description: as §8, §9, §10, §11, §12, §13

[9] = Escherichia coli, MG1655, antibiotic alone, E. coli (DA4201), values used for antibiotic gradient, read-out: MIC
[10] = Escherichia coli, MG1655, antibiotic alone, nutrient broth, read-out: Antibiotic MIC, NB

O=[N+]([O-])[O-].[Ag+] [AgNO3, silver nitrate]
effect of silver source in combination with Streptomycin [1]: synergistic effect | effect of silver formulation in combination with antibiotics vs silica particles 159/500 and 15/500 [2]: improved effect

CC1(C)S[C@@H]2[C@H](NC(=O)[C@H](N)c3ccccc3)C(=O)N2[C@H]1C(=O)O [Ampicillin]
MIC [3, 9]: 4 µg/mL | MIC [3, 10]: 4 µg/mL | Antibiotic MIC, NB + AgSol1000 ([3]; nutrient broth): 2 µg/mL | Fold change (antibiotic MIC, NB vs NB + AgSol1000) [3]: 2x

CO/N=C(\C(=O)N[C@@H]1C(=O)N2C(C(=O)O)=C(COC(C)=O)CS[C@H]12)c1csc(N)n1 [Cefotaxime]
MIC [3, 9]: 0.094 µg/mL | MIC [3, 10]: 0.094 µg/mL | Antibiotic MIC, NB + AgSol1000 ([3]; nutrient broth): 0.047 µg/mL | Fold change (antibiotic MIC, NB vs NB + AgSol1000) [3]: 2x

O=C(N[C@H](CO)[C@H](O)c1ccc([N+](=O)[O-])cc1)C(Cl)Cl [Chloramphenicol]
MIC [3, 9]: 3 µg/mL | MIC [3, 10]: 3 µg/mL | Antibiotic MIC, NB + AgSol1000 ([3]; nutrient broth): 1.5 µg/mL | Fold change (antibiotic MIC, NB vs NB + AgSol1000) [3]: 2x

O=C(O)c1cn(C2CC2)c2cc(N3CCNCC3)c(F)cc2c1=O [Ciprofloxacin]
MIC [3, 9]: 0.012 µg/mL | MIC [3, 10]: 0.012 µg/mL | Antibiotic MIC, NB + AgSol1000 ([3]; nutrient broth): 0.012 µg/mL

CC[C@H]1OC(=O)[C@H](C)[C@@H](O[C@H]2C[C@@](C)(OC)[C@@H](O)[C@H](C)O2)[C@H](C)[C@@H](O[C@@H]2O[C@H](C)C[C@H](N(C)C)[C@H]2O)[C@](C)(O)C[C@@H](C)C(=O)[C@H](C)[C@@H](O)[C@]1(C)O [Erythromycin]
MIC [3, 9]: 48 µg/mL | MIC [3, 10]: 48 µg/mL | Antibiotic MIC, NB + AgSol1000 ([3]; nutrient broth): 48 µg/mL

CC(=O)O[C@H]1C[C@@]2(C)[C@@H](C[C@@H](O)[C@H]3[C@@]4(C)CC[C@@H](O)[C@@H](C)[C@@H]4CC[C@@]32C)/C1=C(\CCC=C(C)C)C(=O)O [Fusidic acid]
effect of antibiotic when adding AgSol [4]: synergistic anti-bacterial effect; also recorded: there was an effect | MIC [4]: 0.12 µg/mL | time-kill: action of antibiotic in combination with AgSol [5]: bacteriostatic

NC[C@H]1O[C@H](O[C@H]2[C@H](O)[C@@H](O[C@H]3O[C@H](CO)[C@@H](O)[C@H](N)[C@H]3O)[C@H](N)C[C@@H]2N)[C@H](O)[C@@H](O)[C@@H]1O [Kanamycin]
MIC [3, 9]: 0.5 µg/mL | MIC [3, 10]: 0.5 µg/mL | Antibiotic MIC, NB + AgSol1000 ([3]; nutrient broth): 0.12 µg/mL | Fold change (antibiotic MIC, NB vs NB + AgSol1000) [3]: 4x

C/C(=C\C(=O)OCCCCCCCCC(=O)O)C[C@@H]1OC[C@H](C[C@@H]2O[C@H]2[C@@H](C)[C@H](C)O)[C@@H](O)[C@H]1O [Mupirocin]
effect of antibiotic when adding AgSol [4]: synergistic anti-bacterial effect; also recorded: there was an effect | MIC [4]: 0.12 µg/mL | time-kill: action of antibiotic in combination with AgSol [5]: bacteriostatic

CO[C@H]1/C=C/O[C@@]2(C)Oc3c(C)c(O)c4c(O)c(c(/C=N/N5CCN(C)CC5)c(O)c4c3C2=O)NC(=O)/C(C)=C\C=C\[C@H](C)[C@H](O)[C@@H](C)[C@@H](O)[C@@H](C)[C@H](OC(C)=O)[C@@H]1C [Rifampicin]
MIC [3, 9]: 3 µg/mL | MIC [3, 10]: 3 µg/mL | Antibiotic MIC, NB + AgSol1000 ([3]; nutrient broth): 3 µg/mL

CN[C@@H]1[C@H](O)[C@H](NC)[C@H]2O[C@@]3(O)C(=O)C[C@@H](C)O[C@H]3O[C@@H]2[C@H]1O [Spectinomycin]
MIC [3, 9]: 12 µg/mL | MIC [3, 10]: 12 µg/mL | Antibiotic MIC, NB + AgSol1000 ([3]; nutrient broth): 6 µg/mL | Fold change (antibiotic MIC, NB vs NB + AgSol1000) [3]: 2x

CN(C)[C@@H]1C(O)=C(C(N)=O)C(=O)[C@@]2(O)C(O)=C3C(=O)c4c(O)cccc4[C@@](C)(O)[C@H]3C[C@@H]12 [Tetracycline]
MIC [3, 9]: 1 µg/mL | MIC [3, 10]: 0.5 µg/mL | Antibiotic MIC, NB + AgSol1000 ([3]; nutrient broth): 0.5 µg/mL

NC[C@H]1O[C@H](O[C@H]2[C@H](O)[C@@H](O[C@H]3O[C@H](CO)[C@@H](O)[C@H](N)[C@H]3O)[C@H](N)C[C@@H]2N)[C@H](N)C[C@@H]1O [Tobramycin]
MIC [3, 9]: 0.75 µg/mL | MIC [3, 10]: 0.75 µg/mL | fold increase in effect with AgSol vs antibiotic alone [3]: 16 fold | Antibiotic MIC, NB + AgSol1000 ([3]; nutrient broth): 0.047 µg/mL | Fold change (antibiotic MIC, NB vs NB + AgSol1000) [3]: 16x

Gentamicin
fold increase in effect with AgSol vs antibiotic alone ([3]; listed as Gentamycin): 17 fold | MIC ([3]; antibiotic alone, E. coli (DA4201), values used for antibiotic gradient): 0.5 µg/mL | Antibiotic MIC, NB ([3]; antibiotic alone, nutrient broth): 0.5 µg/mL | Antibiotic MIC, NB + AgSol1000 ([3]; nutrient broth): 0.03 µg/mL | Fold change (antibiotic MIC, NB vs NB + AgSol1000) [3]: 17x | synergistic effect of gentamicin in combination with AgSol ([6]; P. aeruginosa (PAO1), FIG. 3): −50% | synergistic anti-bacterial effect of antibiotic in combination with colloidal dispersion ([6]; P. aeruginosa, FIGS. 3, 8, 9): synergistic anti-bacterial effect | MIC ([6]; antibiotic alone, P. aeruginosa (DA6215), values used for antibiotic gradient): 0.375 µg/mL | effect on bacteria (OD620) of combination silver/gentamicin ([6]; gentamicin 0.19 ug/ml with silver): complete killing of bacteria | effect on OD620 of gentamicin alone ([6]; gentamicin 0.19 ug/ml without silver): almost no reduction in OD620 | anti-bacterial effect of AgSol and gentamycin on resistant strain [7]: confirmed the anti-bacterial effect | time to almost complete killing (bactericidal effect), gentamicin in combination with AgSol [8]: ≤ 24 h | time-kill: effect of gentamicin in combination with AgSol [8]: no bacterial growth is visible within 48 hours | time-kill: effect of gentamicin in combination with AgSol ([8]; listed as GEN): even stronger bactericidal effect
